{"source": "patent US8952024B2", "about": "“Herbicidal pyrimidone derivatives” (E I du Pont de Nemours and Company, priority 2009, dated 2015)", "assay_type_in_all_cases": "in vivo", "key": {"[1]": {"system": "morningglory (Ipomoea spp.)", "experiment": "Test A pre-/postemergence plant response", "conditions": "Ipomoea, 240 h, read-out: Plant response rating, Morningglory; for pest or weed control at 125 g/ha: 125 g ai/ha; for pest or weed control at 500 g/ha: 500 g ai/ha, approx. ten days", "outline": "(§1)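 Greenhouse pots of loam/sand received directed preemergence soil sprays or postemergence sprays (plants 2–10 cm, 1–2 leaf stage), compounds formulated in non-phytotoxic solvent with surfactant. Injury was rated visually versus untreated controls after about ten days on a 0 (no effect) to 100 (complete control) scale.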"}, "[2]": {"system": "wheat (Triticum aestivum)", "experiment": "Test A pre-/postemergence plant response", "conditions": "Triticum aestivum, 240 h, read-out: Plant response rating, Wheat; for plant injury at 125 g/ha: 125 g ai/ha; for plant injury at 500 g/ha: 500 g ai/ha, approx. ten days", "outline": "as §1"}, "[3]": {"system": "velvetleaf (Abutilon theophrasti)", "experiment": "Test A pre-/postemergence plant response", "conditions": "Abutilon theophrasti, 240 h, read-out: Plant response rating, Velvetleaf; for pest or weed control at 125 g/ha: 125 g ai/ha; for pest or weed control at 500 g/ha: 500 g ai/ha, approx. ten days", "outline": "as §1"}, "[4]": {"system": "large crabgrass (Digitaria sanguinalis)", "experiment": "Test A pre-/postemergence plant response", "conditions": "Digitaria sanguinalis, 240 h, read-out: Plant response rating, Crabgrass, Large; for pest or weed control at 125 g/ha: 125 g ai/ha; for pest or weed control at 500 g/ha: 500 g ai/ha, approx. ten days", "outline": "as §1"}, "[5]": {"system": "giant foxtail (Setaria faberii)", "experiment": "Test A pre-/postemergence plant response", "conditions": "Setaria faberi, 240 h, read-out: Plant response rating, Foxtail, Giant; for pest or weed control at 125 g/ha: 125 g ai/ha; for pest or weed control at 500 g/ha: 500 g ai/ha, approx. ten days", "outline": "as §1"}, "[6]": {"system": "pigweed (Amaranthus retroflexus)", "experiment": "Test A pre-/postemergence plant response", "conditions": "Amaranthus retroflexus, 240 h, read-out: Plant response rating, Pigweed; for pest or weed control at 125 g/ha: 125 g ai/ha; for pest or weed control at 500 g/ha: 500 g ai/ha, approx. ten days", "outline": "as §1"}, "[7]": {"system": "barnyardgrass (Echinochloa crus-galli)", "experiment": "Test A pre-/postemergence plant response", "conditions": "Echinochloa crus-galli, 240 h, read-out: Plant response rating, Barnyardgrass; for pest or weed control at 125 g/ha: 125 g ai/ha; for pest or weed control at 500 g/ha: 500 g ai/ha, approx. ten days", "outline": "as §1"}, "corn (Zea mays)": {"system": "corn (Zea mays)", "experiment": "Test A pre-/postemergence plant response", "conditions": "Zea mays, 240 h; for Corn plant response rating (crop injury, 0 = no effect, 100 = complete kill) at 125 g/ha: 125 g ai/ha; for Corn plant response rating (crop injury, 0 = no effect, 100 = complete kill) at 500 g/ha: 500 g ai/ha, approx. ten days", "outline": "as §1"}, "[8]": {"system": "ducksalad (Heteranthera limosa)", "experiment": "Test B flooded paddy test", "outline": "(§2)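 Each compound is added to standing floodwater (3 cm above soil, maintained) in pots of 2-leaf-stage plants; greenhouse exposure lasts 13–15 d before visual comparison with controls on a 0–100 control scale.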"}, "[9]": {"system": "umbrella sedge (Cyperus difformis)", "experiment": "Test B flooded paddy test", "outline": "as §2"}, "[10]": {"system": "barnyardgrass (Echinochloa crus-galli)", "experiment": "Test B flooded paddy test", "outline": "as §2"}, "rice (Oryza sativa)": {"system": "rice (Oryza sativa)", "experiment": "Test B flooded paddy test", "outline": "as §2"}, "[11]": {"conditions": "post-emergence, Postemergence, 0 to 100 scale where 0 is no effect and 100 is complete control"}, "[12]": {"conditions": "post-emergence, Postemergence, 0 to 100 scale, 0 = no effect, 100 = complete control"}, "[13]": {"conditions": "pre-emergence, Preemergence, 0 to 100 scale, 0 = no effect, 100 = complete control"}, "[14]": {"conditions": "pre-emergence, Preemergence, visual injury, 0 to 100 scale (0 no effect, 100 complete control)"}, "[15]": {"conditions": "Flood, 31 g ai/ha, scale 0 to 100 (0 no effect, 100 complete control)"}}, "note": "Read-outs that look alike come from different tables or passages of the source."}
{"smiles": "COCCCn1c(-c2ccccc2)ncc(C(=O)C2=C(O)CCCC2=O)c1=O", "note": "[Compound 81, 5-[(2-hydroxy-6-oxo-cyclohexen-1-yl)carbonyl]-3-(3-methoxypropyl)-2-phenyl-4(3H)-pyrimidinone]", "values": [{"measurement": "pest or weed control at 125 g/ha", "setting": "[1]; [11]", "value": 90, "unit": "%"}, {"measurement": "pest or weed control at 500 g/ha", "setting": "[1]; [12]", "value": 100, "unit": "%"}, {"measurement": "pest or weed control at 125 g/ha", "setting": "[1]; [13]", "value": 0, "unit": "%"}, {"measurement": "pest or weed control at 500 g/ha", "setting": "[1]; [14]", "value": 70, "unit": "%"}, {"measurement": "plant injury at 125 g/ha", "setting": "[2]; [11]", "value": 0, "unit": "%"}, {"measurement": "plant injury at 500 g/ha", "setting": "[2]; [12]", "value": 30, "unit": "%"}, {"measurement": "plant injury at 125 g/ha", "setting": "[2]; [13]", "value": 0, "unit": "%"}, {"measurement": "plant injury at 500 g/ha", "setting": "[2]; [14]", "value": 20, "unit": "%"}, {"measurement": "pest or weed control at 125 g/ha", "setting": "[3]; [11]", "value": 100, "unit": "%"}, {"measurement": "pest or weed control at 500 g/ha", "setting": "[3]; [12]", "value": 100, "unit": "%"}, {"measurement": "pest or weed control at 125 g/ha", "setting": "[3]; [13]", "value": 100, "unit": "%"}, {"measurement": "pest or weed control at 500 g/ha", "setting": "[3]; [14]", "value": 100, "unit": "%"}, {"measurement": "pest or weed control at 125 g/ha", "setting": "[4]; [11]", "value": 90, "unit": "%"}, {"measurement": "pest or weed control at 500 g/ha", "setting": "[4]; [12]", "value": 90, "unit": "%"}, {"measurement": "pest or weed control at 125 g/ha", "setting": "[4]; [13]", "value": 90, "unit": "%"}, {"measurement": "pest or weed control at 500 g/ha", "setting": "[4]; [14]", "value": 100, "unit": "%"}, {"measurement": "pest or weed control at 125 g/ha", "setting": "[5]; [11]", "value": 80, "unit": "%"}, {"measurement": "pest or weed control at 500 g/ha", "setting": "[5]; [12]", "value": 90, "unit": "%"}, {"measurement": "pest or weed control at 125 g/ha", "setting": "[5]; [13]", "value": 30, "unit": "%"}, {"measurement": "pest or weed control at 500 g/ha", "setting": "[5]; [14]", "value": 80, "unit": "%"}, {"measurement": "pest or weed control at 125 g/ha", "setting": "[6]; [11]", "value": 100, "unit": "%"}, {"measurement": "pest or weed control at 500 g/ha", "setting": "[6]; [12]", "value": 100, "unit": "%"}, {"measurement": "pest or weed control at 125 g/ha", "setting": "[6]; [13]", "value": 100, "unit": "%"}, {"measurement": "pest or weed control at 500 g/ha", "setting": "[6]; [14]", "value": 100, "unit": "%"}, {"measurement": "pest or weed control at 125 g/ha", "setting": "[7]; [11]", "value": 100, "unit": "%"}, {"measurement": "pest or weed control at 500 g/ha", "setting": "[7]; [12]", "value": 100, "unit": "%"}, {"measurement": "pest or weed control at 125 g/ha", "setting": "[7]; [13]", "value": 50, "unit": "%"}, {"measurement": "pest or weed control at 500 g/ha", "setting": "[7]; [14]", "value": 90, "unit": "%"}, {"measurement": "Corn plant response rating (crop injury, 0 = no effect, 100 = complete kill) at 125 g/ha", "setting": "corn (Zea mays); [11]", "value": 10, "unit": "%"}, {"measurement": "Corn plant response rating (crop injury, 0 = no effect, 100 = complete kill) at 500 g/ha", "setting": "corn (Zea mays); [12]", "value": 70, "unit": "%"}, {"measurement": "Corn plant response rating (crop injury, 0 = no effect, 100 = complete kill) at 125 g/ha", "setting": "corn (Zea mays); [13]", "value": 0, "unit": "%"}, {"measurement": "Corn plant response rating (crop injury, 0 = no effect, 100 = complete kill) at 500 g/ha", "setting": "corn (Zea mays); [14]", "value": 0, "unit": "%"}, {"measurement": "Ducksalad plant response rating", "setting": "[8]; [15]", "value": 0}, {"measurement": "pest or weed control at 250 g/ha", "setting": "[8]; Heteranthera limosa, 360 h, 250 g ai/ha, flooded paddy test, visual rating on 0 to 100 scale (0 no effect, 100 complete control) after 13 to 15 days, read-out: Plant response rating, Flood, Ducksalad", "value": 40, "unit": "%"}, {"measurement": "pest or weed control at 62 g/ha", "setting": "[8]; Heteranthera limosa, 360 h, Flood (flooded paddy test), 62 g ai/ha, scale of 0 to 100 where 0 is no effect and 100 is complete control, 13 to 15 days, read-out: Plant response rating, Ducksalad", "value": 0, "unit": "%"}, {"measurement": "pest or weed control at 125 g/ha", "setting": "[8]; Heteranthera limosa, 360 h, Flood (flooded paddy test), 125 g ai/ha, scale 0 to 100, 0 is no effect, 100 is complete control, 13 to 15 days, read-out: Plant response rating, Ducksalad", "value": 15, "unit": "%"}, {"measurement": "pest or weed control at 250 g/ha", "setting": "[9]; Cyperus difformis, 360 h, 250 g ai/ha, flooded paddy test, visual rating on 0 to 100 scale (0 no effect, 100 complete control) after 13 to 15 days, read-out: Plant response rating, Flood, Sedge, Umbrella", "value": 40, "unit": "%"}, {"measurement": "pest or weed control at 62 g/ha", "setting": "[9]; Cyperus difformis, 360 h, Flood (flooded paddy test), 62 g ai/ha, scale of 0 to 100 where 0 is no effect and 100 is complete control, 13 to 15 days, read-out: Plant response rating, Sedge, Umbrella", "value": 0, "unit": "%"}, {"measurement": "pest or weed control at 125 g/ha", "setting": "[9]; Cyperus difformis, 360 h, Flood (flooded paddy test), 125 g ai/ha, scale 0 to 100, 0 is no effect, 100 is complete control, 13 to 15 days, read-out: Plant response rating, Sedge, Umbrella", "value": 30, "unit": "%"}, {"measurement": "Sedge, Umbrella plant response rating", "setting": "[9]; [15]", "value": 0}, {"measurement": "pest or weed control at 250 g/ha", "setting": "[10]; Echinochloa crus-galli, 360 h, 250 g ai/ha, flooded paddy test, visual rating on 0 to 100 scale (0 no effect, 100 complete control) after 13 to 15 days, read-out: Plant response rating, Flood, Barnyardgrass", "value": 60, "unit": "%"}, {"measurement": "pest or weed control at 62 g/ha", "setting": "[10]; Echinochloa crus-galli, 360 h, Flood (flooded paddy test), 62 g ai/ha, scale of 0 to 100 where 0 is no effect and 100 is complete control, 13 to 15 days, read-out: Plant response rating, Barnyardgrass", "value": 0, "unit": "%"}, {"measurement": "pest or weed control at 125 g/ha", "setting": "[10]; Echinochloa crus-galli, 360 h, Flood (flooded paddy test), 125 g ai/ha, scale 0 to 100, 0 is no effect, 100 is complete control, 13 to 15 days, read-out: Plant response rating, Barnyardgrass", "value": 40, "unit": "%"}, {"measurement": "Barnyardgrass plant response rating", "setting": "[10]; [15]", "value": 0}, {"measurement": "Rice plant response rating", "setting": "rice (Oryza sativa); [15]", "value": 0}, {"measurement": "plant injury at 250 g/ha", "setting": "rice (Oryza sativa); Oryza sativa, 250 g ai/ha, flooded paddy test, visual rating on 0 to 100 scale (0 no effect, 100 complete control) after 13 to 15 days, read-out: Plant response rating, Flood, Rice", "value": 15, "unit": "%"}, {"measurement": "plant injury at 62 g/ha", "setting": "rice (Oryza sativa); Oryza sativa, Flood (flooded paddy test), 62 g ai/ha, scale of 0 to 100 where 0 is no effect and 100 is complete control, 13 to 15 days, read-out: Plant response rating, Rice", "value": 0, "unit": "%"}, {"measurement": "plant injury at 125 g/ha", "setting": "rice (Oryza sativa); Oryza sativa, Flood (flooded paddy test), 125 g ai/ha, scale 0 to 100, 0 is no effect, 100 is complete control, 13 to 15 days, read-out: Plant response rating, Rice", "value": 15, "unit": "%"}]}
